The values below come from patent US6967102B1, “Nitric oxide manipulation of muscle satellite cell activation” (University of Manitoba, priority 1999, dated 2005).

The structures appear in SMILES notation. Entries after “also recorded” stand apart in the source; their conditions may differ.

One data set concerns regenerating muscle. In words: Muscle regeneration 6 days after crush injury, normal mice. The class given is in vivo. The method, then:
(§1) The time course of treatment effects was determined at two intervals; during the early response 0, 5, 10 and 30 min after injury, and over the longer term after 6 days recovery. Short term experiments were repeated at least twice. The longer term animals were maintained either on plain drinking water or water containing fresh L-NAME at 12.5 mg/100 ml (30 mg/kg/day), based on an intake of 6–7 ml/day/mouse (McIntosh et al., 1994. 17:444–453). In the longer term repair studies, there were 4 normal mice in each of saline- and L-NAME-treated groups. An additional 2 normal and 2 mdx mice were injected once before injury with L-NAME and given plain water for 6 days.
In the longer term study of NOS inhibition during repair, saline and L-NAME-treated normal mice recovered for 6 days. Two mice per group were injected 2 hr before sacrifice with BrdU (i.p., 1.6 mg in 0.4 ml saline) and sections were immunostained using anti-BrdU antibodies as above.
(§2) Sections and cultures were viewed on an Olympus microscope equipped with epifluorescence and phase contrast optics. Observations were based on systematic viewing of 2–4 longitudinal sections per muscle (separated by >100m). In the case of muscle regenerating from crush injury, observations (without knowledge of treatment group) were made in pre-set fields of muscle from the central crush region, the adjacent regenerating region and the surviving region as reported (McIntosh et al. (1994) Muscle Nerve 17: 444–453). Representative photographs of muscle fibers and satellite cells were taken on over 700 frames of ASA 400 Fuji Sensia slide film. Where stated, the number of satellite cells observed in each category, group or condition was estimated from photographed slides rather than from direct counts made during observations under oil immersion. Selected slides were scanned (Olympus Film Scanner ES-10, Olympus Optical Co., Tokyo), formatted into plates with little or no enlargement and printed (Freehand 8.0, Macromedia Inc.).

Data set [1] is described as follows: Muscle weight to body weight (edema) and haemorrhage after crush injury, normal mice. The class given is in vivo, normal mice (C57BL/6). The conditions noted are these: ip treatment 30 min before crush; 0–30 min after injury.
The subject of the next data set is dystrophic muscle. The experiment in a line: Longer term systemic L-NAME treatment, severity of dystrophy in mdx mice. The following applies: systemic L-NAME (3 weeks / drinking water); young mdx animals; diaphragm, SOL, EDL, TA. The class given is in vivo. An excerpt:
The present results address for the first time the initial steps of satellite cell activation. A single exposure to NOS inhibition had subtle effects on myotube formation that echo NO-stimulated myoblast fusion in vitro. Longer NOS inhibition reduced the effectiveness of repair and restricted its distribution, in agreement with the idea that shear-induced responses become attenuated longitudinally away from the injury. The significant negative effect of pharmacologic NOS inhibition on myogenic repair reported here was further extended by the recent preliminary studies on repair in NOS-I knockout mice (n≈2), and during longer term NOS inhibition in mdx mice (n≈22).
A study of 4 groups (n≈10/group) of mdx dystrophic mice treated with placebo, deflazacort, deflazacort plus L-NAME (a NOS inhibitor), or deflazacort plus L-arginine (a […]). Deflazacort was given by daily injection (ip) and L-NAME and L-arginine were given systemically in the drinking water.

Data set [2] can be described thus: Muscle weight to body weight (edema) and haemorrhage after crush injury, mdx mice. The format is in vivo. The conditions noted are these: L-NAME ip 30 min before crush.
The subject of data set [3] is satellite cells. In words: Histology and immunostaining (m-cadherin, c-met, HGF/SF) of satellite cells 0 and 10 min after crush. The format is in vivo, normal mice. The method, then:
as §2, with “A separate experiment was conducted to study the immediate effects of injury on muscle and satellite cell histology. […] Muscles were bisected longitudinally, and half of each muscle was frozen in OCT. for cryosectioning. Sections were stained with H&E or immunostained using primary antibodies to c-met (1:400), HGF/SF (1:1000, R&D Systems) or developmental myosin heavy chain ([…], 1:250, Novocastra Laboratories) as reported ([…] et al. (1996) Exp. Cell Res. 22: 214-222; Tatsumi et al. (1998) Dev. Biol. 194: 114-128) or against m-cadherin (1:50, Santa Cruz). […] Sections” for “Sections”, “Observations were based on systematic viewing of 2–4 longitudinal sections per muscle (separated by >100m).” left out, “444-453).” for “444–453).”, “Sensia” left out

Data set [4] has as its system satellite cells. In words: Cell yield time course 0–30 min after crush injury of right tibialis anterior, mdx mice. The class given is in vivo. The conditions noted are these: L-NAME.
A further data set has as its system regenerating mdx muscles. The experiment in a line: Muscle regeneration 6 days after crush injury, mdx mice. The class given is in vivo. The conditions noted are these: single L-NAME injection. The protocol: as §1
Sections and cultures were viewed on an Olympus microscope equipped with epifluorescence and phase contrast optics. Observations were based on systematic viewing of 2–4 longitudinal sections per muscle (separated by […]). In the case of muscle regenerating from crush injury, observations (without knowledge of treatment group) were made in pre-set fields of muscle from the central crush region, the adjacent regenerating region and the surviving region as reported (McIntosh et al. (1994) Muscle Nerve 17: 444–453). Representative photographs of muscle fibers and satellite cells were taken on over 700 frames of ASA 400 Fuji Sensia slide film. […]

Turning to `COC(=O)[C@@H](N)CCCNC(=N)N[N+](=O)[O-]` [L-NAME, Nω-nitro-L-arginine methyl ester], the muscle regeneration entry in the data set with regenerating muscle (L-NAME in drinking water (30 mg/kg/day) over 6 days of repair, n=4) is recorded as “muscle regeneration was reduced; also recorded: reduces normal muscle regeneration”. Moreover, the “density of myotubes per field vs saline-treated mice” value in the data set on regenerating muscle (L-NAME over 6 days of repair) was “much lower density per field”. Moreover, in the data set on regenerating muscle (longer term L-NAME exposure of regenerating mdx and normal muscle in vivo), the branched myotubes entry is reported as “high prevalence of branched myotubes”. Moreover, the “myotubes appearing as incompletely fused blocks of cells” value in the data set on regenerating muscle (single injection of L-NAME before injury, 6 days, estimated) is reported as 5–10%. In addition, the “muscle regeneration after 6 days” value in the data set with regenerating muscle (single injection of L-NAME before injury, n=2) is reported as “subtle effects on muscle regeneration”. Moreover, the “muscle weight profile (RTA relative to LTA; muscle weight as proportion of body weight)” value in data set [1] is “RTA weight increased only at 10 min. relative to LTA”. For the same compound, the severity of dystrophy result in the data set on dystrophic muscle is listed as “appeared to increase the severity of dystrophy; also recorded: makes dystrophy more severe”. For the same compound, in data set [2], the “increase in RTA weight after injury” value is “abolished the increase in RTA weight for 30 min”. The “normal rapid changes in satellite cell size and position” value with satellite cells [3] (L-NAME treatment 30 min before crush) was “consistently delayed and restricted”. In the data set on satellite cells [3] (L-NAME-treated mice, 0 min, more than 70 satellite cells identified), the “satellite cells thin and attenuated in both RTA and LTA” value is given as 85%. In addition, the “satellite cells with c-met and HGF/SF co-localized” value in the data set with satellite cells [3] (L-NAME-treated mice, 10 min after injury) is listed as “at least 70%”. In the data set on satellite cells [4], the “increase of LTA cell yield at 10 min” value turned out to be 50%. In the data set with satellite cells [4] (0–30 min), the RSOL cell yield entry is reported as “did not change over time”; the “RTA cell yield time course” value is “rose slowly over the 30 min. time course; also recorded: decreased and further delayed the peak of myogenic cells; also recorded: prevented the increased RTA yield at 10 min”. Further, the “new myotubes in continuity with satellite cells, anchored inside external lamina sheaths” value with regenerating mdx muscles (6 days) is listed as “roughly 5%”. Further, the “regenerating muscle over 6 days” value in the data set on regenerating mdx muscles (n=2) is on record as “subtle changes in regenerating mdx muscles”.
